Measurements reported in patent US20240327852A1, “METHODS OF TRANSFORMATION” (SYNGENTA CROP PROTECTION AG, priority 2019, published 2024).

Key:
Type in all cases: in vivo
[1] = system: soybean (Glycine max) explants; experiment: Semi-in-planta soybean transformation, greenhouse bensulfuron-methyl selection for ALS marker, Taqman assay of recovered shoots; conditions: for Escape rate / Number of events / TF: 3 weeks greenhouse selection
Experimental: (§1) Sterilized mature soybean (Glycine max) seeds were used. Prior to Agrobacterium inoculation, seeds were soaked in sterilized H2O or liquid medium Soy1 for overnight (12-18 hours) at 22-24° C. Liquid medium Soy 1 contains 3.1 g/L Gamborg's B5 basal medium and 2 mg/L BAP
(§2) The seed coat was removed from the soaked seed. One of the cotyledons and both primary leaves were carefully removed and discarded. Next, the region containing the epicotyl, apical meristem and the cotyledonary node were wounded by making several cuts with the sharp end of scalpel blade.
(§3) Agrobacterium tumefaciens strain [Chry5d3 recA−] was used. The Agrobacterium harbored a binary vector containing a selectable marker and gene of interest, specifically construct 23093 containing EPSPS selectable marker driven by translation elongation factor EF-1 alpha/Tu promoter and AmCyan gene driven by Cestrum Yellow leaf curl virus promoter (prCMP), construct18891 containing codon-optimized Acetolactate synthase (ALS) double mutant (P191A, W568L) from Nicotiana tabacum for soybean and AmCyan gene driven by prCMP, and construct 22296 containing codon-optimized Acetolactate synthase (ALS) double mutant (P191A, W568L) from Nicotiana tabacum for soybean driven by translation elongation factor EF-1 alpha/Tu promoter, including the first intron and neighboring 5′-UTR, from soybean (Williams 82) prGmEF-02. Agrobacterium culture was streaked from −80° C. from glycerol stock onto YP plates containing 100 mg/L ampicillin and 500 mg/L spectinomycin appropriate antibiotics and grown in a 23° C. incubator. Before inoculation with explants, Agrobacterium cells were collected from the plate and were uniformly suspended in liquid infection medium SoyInf in a sterile disposable 50 ml centrifuge tube and diluted to OD A660 of approximately 0.3 to 0.6. A final concentration of 40-80 mg/L (200-400 uM) acetosyringone was added to induce virulence gene expression. Dithiothreitol (DTT) was added to a final concentration of 150 μg/ml. SoyInf contains 1.1 g/L MS basal salt mixture, 20 g/L sucrose, 10 g/L glucose, 4 g/L MES, 1 ml/L Gamborg's B5 vitamins (1000×) and 2 mg/L zeatin riboside.
(§4) The wounded explants were immediately infected with Agrobacterium by immersing them with the Agrobacterium suspension, and then incubated for 18 hours in dark at room temperature. After infection, the explants were removed from the Agrobacterium suspension and transferred to petri dishes for co-cultivation in an airtight plastic container. The co-cultivation plates were incubated for 3-5 days at 22±1° C. in the dark, with explants placed adaxial side up.
(§5) The explants were transplanted to soil for further selection and development of transgenic shoots after immersed in Soy2 medium for 2 day and in Soy2 medium with 2 μM bensulfuron-methyl for 5 days. The selection is performed for three weeks in GH by application with various concentrations of bensulfuron-methyl using mounted cotton ball or daily liquid spay methods. The recovered shoots from each treatment were subjected for Taqman assay to confirm the transgenic frequency. The application solution contains bensulfuron-methyl, 1 g/L MES and BAP (2 mg./L for first week, and 1 mg/L for second and third weeks, or 2 mg/L or 1 mg/l for three weeks). Alternatively, the transplanted explants in soil can be directly spayed with selection solution containing commercial herbicide Ecomazayr (1-8 μM isopropylamine salt of imazapyr), 1-2 mg/L BAP and 1 g/L MES for 3 weeks.
To obtain an optimal selection conditions and methods for ALS selection, a side-by-side comparison experiment was conducted. Transgenic events can be recovered without selection in Greenhouse at more than 18% transformation frequency with 73% escape rate. […] By using cotton ball method for application of bensulfuron-methyl, high transformation frequency (˜40%) with high single copy event rate (50%) was obtained. […]

[2] = system: soybean (Glycine max) explants; experiment: Comparison of greenhouse selection effectiveness between BSU and Ecomazayr for ALS selectable marker
Experimental: as §5
An experiment was conducted to compare the selection effectiveness in greenhouse between BSU and commercial herbicide Ecomazayr for ALS selectable marker using current transformation method.

[3] = system: soybean (Glycine max) explants; experiment: Semi-in-planta soybean transformation, greenhouse glyphosate selection for EPSPS marker, Taqman assay of recovered shoots; conditions: 3 weeks greenhouse selection, 48 explants
Experimental: as §1, §2, §3, §4
After 2 day in Soy2 medium and 5 days in Soy2 medium with 100 μM glyphosate, the explants were transplanted to soil for further selection and development of transgenic shoots. The selection is performed for three weeks in GH by application with various concentrations of glyphosate using mounted cotton ball or daily liquid spay methods. The recovered shoots from each treatment were subjected for Taqman assay to confirm the transgenic frequency. The application solution contains glyphosate, 1 g/L MES and BAP (2 mg./L for first week, and 1 mg/L for second and third weeks, or 2 mg/L or 1 mg/l for three weeks).
To obtain an optimal selection conditions and methods for EPSPS selection, a side-by-side comparison experiment was conducted. Transgenic events can be recovered without selection in Greenhouse at 18% transformation frequency with more than 80% escape rate. […] Similar results can also be achieved by daily spay of 150 μM or more of glyphosate with few escapes.

[4] = cotton ball, 3 μM bensulfuron-methyl, 40 explants
[5] = cotton ball, 6 μM bensulfuron-methyl, 48 explants
[6] = cotton ball, 9 μM bensulfuron-methyl, 48 explants
[7] = daily spray, 3 μM bensulfuron-methyl, 48 explants
[8] = daily spray, 4 μM bensulfuron-methyl, 48 explants
[9] = daily spray, 5 μM bensulfuron-methyl, 48 explants
[10] = daily spray, 6 μM bensulfuron-methyl, 48 explants
[11] = daily spray, 7 μM bensulfuron-methyl, 48 explants
[12] = daily spray, 8 μM bensulfuron-methyl, 48 explants
[13] = daily spray, 9 μM bensulfuron-methyl, 48 explants
[14] = daily spray, 10 μM bensulfuron-methyl, 48 explants
[15] = greenhouse selection 3 μM BSU, 56 explants
[16] = greenhouse selection 1 μM imazapyr, 56 explants
[17] = greenhouse selection 2 μM imazapyr, 56 explants
[18] = greenhouse selection 3 μM imazapyr, 56 explants
[19] = greenhouse selection 4 μM imazapyr, 56 explants
[20] = greenhouse selection 5 μM imazapyr, 56 explants
[21] = greenhouse selection 6 μM imazapyr, 56 explants
[22] = greenhouse selection 7 μM imazapyr, 52 explants
[23] = greenhouse selection 8 μM imazapyr, 54 explants

## COC(=O)c1ccccc1CS(=O)(=O)NC(=O)Nc1nc(OC)cc(OC)n1 [bensulfuron-methyl]
[1]; 3 μM or higher concentrations of bensulfuron-methyl
  escape events recovered: No escape event
[1]; [4]
  Escape rate: 0.0%
  Number of events: 16
  TF: 40.0%
[1]; [5]
  Escape rate: 0.0%
  Number of events: 13
  TF: 27.1%
[1]; [6]
  Escape rate: 0.0%
  Number of events: 9
  TF: 18.8%
[1]; [7]
  Escape rate: 0.0%
  Number of events: 18
  TF: 37.5%
[1]; [8]
  Escape rate: 0.0%
  Number of events: 10
  TF: 20.8%
[1]; [9]
  Escape rate: 0.0%
  Number of events: 10
  TF: 20.8%
[1]; [10]
  Escape rate: 0.0%
  Number of events: 10
  TF: 20.8%
[1]; [11]
  Escape rate: 0.0%
  Number of events: 6
  TF: 12.5%
[1]; [12]
  Escape rate: 0.0%
  Number of events: 11
  TF: 22.9%
[1]; [13]
  Escape rate: 0.0%
  Number of events: 12
  TF: 25.0%
[1]; [14]
  Escape rate: 0.0%
  Number of events: 8
  TF: 16.7%
[2]; [15]
  Number of escapes: 0
  Number of events: 12
  Transformation frequency (%): 21.4%

## O=C(O)CNCP(=O)(O)O [glyphosate]
[3]; cotton ball, 100 μM glyphosate
  Escape rate: 2.1%
  Number of events: 16
  Transformation Frequency: 33.3%
[3]; cotton ball, 125 μM glyphosate
  Escape rate: 0.0%
  Number of events: 25
  Transformation Frequency: 52.1%
[3]; cotton ball, 150 μM glyphosate
  Escape rate: 0.0%
  Number of events: 24
  Transformation Frequency: 50.0%
[3]; cotton ball, 175 μM glyphosate
  Number of events: 23
  Transformation Frequency: 47.9%
[3]; daily spray, 100 μM glyphosate
  Escape rate: 2.1%
  Number of events: 11
  Transformation Frequency: 22.9%
[3]; daily spray, 125 μM glyphosate
  Escape rate: 6.3%
  Number of events: 13
  Transformation Frequency: 27.1%
[3]; daily spray, 150 μM glyphosate
  Escape rate: 2.1%
  Number of events: 20
  Transformation Frequency: 41.7%
[3]; daily spray, 175 μM glyphosate
  Escape rate: 6.3%
  Number of events: 22
  Transformation Frequency: 45.8%
[3]; daily spray, 200 μM glyphosate
  Escape rate: 6.3%
  Number of events: 20
  Transformation Frequency: 41.7%
[3]; daily spray, 250 μM glyphosate
  Escape rate: 4.2%
  Number of events: 15
  Transformation Frequency: 31.3%
[3]; daily spray, 300 μM glyphosate
  Escape rate: 2.1%
  Number of events: 23
  Transformation Frequency: 47.9%

## CC(C)C1(C)N=C(c2ncccc2C(=O)O)NC1=O (stereo not shown) [imazapyr]
[2]; ALS selectable marker, recovery of ALS transgenic plants
  selection effectiveness in greenhouse: as effective as BSU
[2]; [16]
  Number of escapes: 1
  Number of events: 15
  Transformation frequency (%): 26.8%
[2]; [17]
  Number of escapes: 0
  Number of events: 12
  Transformation frequency (%): 21.4%
[2]; [18]
  Number of escapes: 0
  Number of events: 20
  Transformation frequency (%): 35.7%
[2]; [19]
  Number of escapes: 0
  Number of events: 14
  Transformation frequency (%): 25.0%
[2]; [20]
  Number of escapes: 0
  Number of events: 8
  Transformation frequency (%): 14.3%
[2]; [21]
  Number of escapes: 0
  Number of events: 10
  Transformation frequency (%): 17.9%
[2]; [22]
  Number of escapes: 0
  Number of events: 10
  Transformation frequency (%): 19.2%
[2]; [23]
  Number of escapes: 0
  Number of events: 10
  Transformation frequency (%): 18.5%
